For one test, the species on record is Homo sapiens. Briefly: Inhibition of clathrin at 100 uM.
Test [1] in a line: Inhibition of sheep dynamin 1 GTPase activity after 30 mins by malachite-green method. On the set-up: species or system Ovis aries.
In another test the target is T1, Dynamin-1 (Homo sapiens) (UniProt Q05193).
T1 sequence (whole entry): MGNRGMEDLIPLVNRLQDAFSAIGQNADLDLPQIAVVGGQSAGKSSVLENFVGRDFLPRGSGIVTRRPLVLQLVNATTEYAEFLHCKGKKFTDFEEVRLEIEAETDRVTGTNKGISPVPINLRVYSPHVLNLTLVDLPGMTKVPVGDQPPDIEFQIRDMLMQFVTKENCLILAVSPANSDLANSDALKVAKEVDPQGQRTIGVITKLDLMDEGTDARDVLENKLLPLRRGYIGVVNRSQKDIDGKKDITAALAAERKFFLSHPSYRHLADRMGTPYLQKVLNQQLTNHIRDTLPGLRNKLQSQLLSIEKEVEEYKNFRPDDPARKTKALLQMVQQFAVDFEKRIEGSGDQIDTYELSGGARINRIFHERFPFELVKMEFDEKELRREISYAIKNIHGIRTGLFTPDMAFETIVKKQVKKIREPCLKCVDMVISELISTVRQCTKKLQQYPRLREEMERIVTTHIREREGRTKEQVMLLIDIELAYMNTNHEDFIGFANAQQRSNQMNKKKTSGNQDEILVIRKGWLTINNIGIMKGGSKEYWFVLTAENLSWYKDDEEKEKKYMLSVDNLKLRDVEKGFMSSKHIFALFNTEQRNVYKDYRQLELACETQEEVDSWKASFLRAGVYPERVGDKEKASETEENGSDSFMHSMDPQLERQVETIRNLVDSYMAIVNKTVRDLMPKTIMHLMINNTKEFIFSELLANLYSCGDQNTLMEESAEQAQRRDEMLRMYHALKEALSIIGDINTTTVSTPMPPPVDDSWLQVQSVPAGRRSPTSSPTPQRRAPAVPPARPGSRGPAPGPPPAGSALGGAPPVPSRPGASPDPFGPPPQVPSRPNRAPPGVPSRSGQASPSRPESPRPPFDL
As to the kind of experiment: Inhibition of dynamin1-mediated endocytosis in human U2OS cells assessed as inhibition of Texas red-Tf uptake incubated up to 300 uM for 30 mins prior to Texas red-Tf addition measured after 8 mins by receptor-mediated endocytosis assay. The class given is cell-based.

The text below walks through data of ChEMBL document CHEMBL2062444, “The Rhodadyns, a New Class of Small Molecule Inhibitors of Dynamin GTPase Activity” (ACS Med Chem Lett, 2012).

The structures appear in SMILES notation. Active and inactive are the calls of the source. Unless noted, the calls are words filed in the database; no cut-off is given here.

Usually IC50 stands for the point on the concentration scale where inhibition reaches its midpoint. A high value points to a need for much substance.

Take `CCN1C(=O)/C(=C/c2cc(Cl)cc(Cl)c2)SC1=S`: the inhibition result in the test listed under Homo sapiens and at Dynamin-1 (Homo sapiens) was “inactive” throughout. Also, the IC50 in test [1] amounted to 3.1 µM.
As for `C=CCN1C(=O)/C(=C/c2cc(Cl)cc(Cl)c2)SC1=S`, the inhibition result in the test filed under Homo sapiens and on Dynamin-1 (Homo sapiens) was “inactive” each time. This compound also had a concentration for half-maximal inhibition (IC50) in test [1] of 31 µM.
`O=C(O)CCN1C(=O)/C(=C/c2cc(Cl)cc(Cl)c2)SC1=S`: the inhibition result in the test listed under Homo sapiens and at Dynamin-1 (Homo sapiens) was “inactive” in each case. For the same compound, in test [1], the IC50 amounted to 4.4 µM.
